Data taken from patent publication US11691949B2, “Quinoline sulfonamide compounds and their use as antibacterial agents” (OTAGO INNOVATION LIMITED, priority 2017, dated 2023).
≈ marks a conversion by molar mass, not a printed value. Where two headings read alike, the source gives them in different places.

Tests used:
Format in all cases: cell-based
[1] = tested on: E. coli ATCC 10596; experiment: MIC by broth microdilution, E. coli; settings: Escherichia coli, read-out: E. coli ATCC 10536 MIC
Description: (§1) Antibacterial susceptibility testing was performed in triplicate (biological) by measuring minimum inhibitory concentrations (MICs) by broth microdilution in 96-well flat bottom microtiter plates (ThermoFisher Scientific, New Zealand). S. uberis ATCC 19436, S. aureus ATCC 6538, or E. coli ATCC 10596 cells grown overnight were diluted to an OD600 of approximately 0.025, so that the final concentration of cells in the MIC assay was approximately 5×10^5 cfu/mL in media as follows: S. uberis; Todd Hewitt Broth (THB), S. aureus; Tryptic Soy Broth (TSB) and Cation Adjusted Muller Hinton Broth (CAMHB), and E. coli; Lysogeny Borth (LB) and CAMHB, before being dispensed into microtiter wells. As required additional sterile Zinc Sulphate (Heptahydrate) was supplemented into the media, so the final concentration was 50 μM. Test compounds were added to starting wells and two-fold serial dilutions were undertaken to generate a range of inhibitor concentrations at a final volume of 200 μl. Media and test compound-free (untreated) controls were included in each microtiter plate in triplicate. After 24 h incubation at 37° C. and 200 rpm, the OD600 of wells were read using a Varioskan Flash plate reader (ThermoFisher Scientific, New Zealand). The MIC was reported as the lowest concentration of the test compound for which no growth occurred, as determined by OD600 readings. The minimum bactericidal concentration (MBC) was determined using the Miles-Misra drop-plate method to measure the viability of cells in response to test compound challenge.

[2] = tested on: S. uberis ATCC 19436; experiment: MIC by broth microdilution, S. uberis; settings: Streptococcus uberis, read-out: S. uberis ATCC 19436 MIC
Description: as §1

[3] = tested on: S. aureus ATCC 6538; experiment: MIC by broth microdilution, S. aureus; settings: Staphylococcus aureus, read-out: S. aureus ATCC 6538 MIC
Description: as §1

[4] = ATCC 10536 / ATCC 10596, No Zinc
[5] = ATCC 10536 / ATCC 10596, Zinc (50 μM)

MIC [1, 4] | MIC [1, 5] | MIC ([2]; ATCC19436, No Zinc) | MIC ([2]; ATCC19436, Zinc (50 μM)) | MIC ([3]; ATCC6538, No Zinc) | MIC ([3]; ATCC6538, Zinc (50 μM)) | SMILES
> 256 mg/L | > 256 mg/L | 256 mg/L (≈ 720 µM) | 0.25 mg/L (≈ 0.703 µM) | 256 mg/L (≈ 720 µM) | > 256 mg/L | Cc1ccc(S(=O)(=O)Nc2cccc3ccc(CN(C)C)nc23)cc1 [ZDR062, N-(2-((Dimethylamino)methyl)quinolin-8-yl)-4-methylbenzenesulfonamide]
> 256 mg/L | > 256 mg/L | > 256 mg/L | 0.25 mg/L (≈ 0.673 µM) | > 256 mg/L | > 256 mg/L | COc1ccc(S(=O)(=O)Nc2cccc3ccc(CN(C)C)nc23)cc1 [ZDR063, N-(2-((Dimethylamino)methyl)quinolin-8-yl)-4-methoxybenzenesulfonamide]
> 256 mg/L | > 256 mg/L | > 256 mg/L | 0.0625 mg/L (≈ 0.166 µM) | 128 mg/L (≈ 341 µM) | 256 mg/L (≈ 681 µM) | CN(C)Cc1ccc2cccc(NS(=O)(=O)c3ccc(Cl)cc3)c2n1 [ZDR064, 4-Chloro-N-(2-((dimethylamino)methyl)quinolin-8-yl)benzenesulfonamide]
> 256 mg/L | > 256 mg/L | > 256 mg/L | 0.125 mg/L (≈ 0.348 µM) | 256 mg/L (≈ 712 µM) | 256 mg/L (≈ 712 µM) | CN(C)Cc1ccc2cccc(NS(=O)(=O)c3ccc(F)cc3)c2n1 [ZDR065, N-(2-((Dimethylamino)methyl)quinolin-8-yl)-4-fluorobenzenesulfonamide]
> 256 mg/L | > 256 mg/L | 128 mg/L (≈ 301 µM) | 0.0625 mg/L (≈ 0.147 µM) | 256 mg/L (≈ 602 µM) | > 256 mg/L | CN(C)Cc1ccc2cccc(NS(=O)(=O)c3ccc(OC(F)(F)F)cc3)c2n1 [ZDR066, N-(2-((Dimethylamino)methyl)quinolin-8-yl)-4-(trifluoromethoxy)benzenesulfonamide]
> 256 mg/L | > 256 mg/L | 128 mg/L (≈ 331 µM) | 0.125 mg/L (≈ 0.323 µM) | 128 mg/L (≈ 331 µM) | 256 mg/L (≈ 662 µM) | CN(C)Cc1ccc2cccc(NS(=O)(=O)c3ccc([N+](=O)[O-])cc3)c2n1 [ZDR067, N-(2-((Dimethylamino)methyl)quinolin-8-yl)-4-nitrobenzenesulfonamide]
> 256 mg/L | > 256 mg/L | > 256 mg/L | 1 mg/L (≈ 2.73 µM) | > 256 mg/L | > 256 mg/L | CN(C)Cc1ccc2cccc(NS(=O)(=O)c3ccc(C#N)cc3)c2n1 [ZDR068, 4-Cyano-N-(2-((dimethylamino)methyl)quinolin-8-yl)benzenesulfonamide]
> 256 mg/L | > 256 mg/L | > 256 mg/L | 0.25 mg/L (≈ 0.626 µM) | 256 mg/L (≈ 641 µM) | > 256 mg/L | COC(=O)c1ccc(S(=O)(=O)Nc2cccc3ccc(CN(C)C)nc23)cc1 [ZDR069, Methyl 4-(N-(2-((dimethylamino)methyl)quinolin-8-yl)sulfamoyl)benzoate]
> 256 mg/L | > 256 mg/L | > 256 mg/L | 0.5 mg/L (≈ 1.3 µM) | > 256 mg/L | > 256 mg/L | CC(=O)c1ccc(S(=O)(=O)Nc2cccc3ccc(CN(C)C)nc23)cc1 [ZDR070, 4-Acetyl-N-(2-((dimethylamino)methyl)quinolin-8-yl)benzenesulfonamide]
> 256 mg/L | > 256 mg/L | > 256 mg/L | 4 mg/L (≈ 9.53 µM) | > 256 mg/L | > 256 mg/L | CN(C)Cc1ccc2cccc(NS(=O)(=O)c3ccc(S(C)(=O)=O)cc3)c2n1 [ZDR071, N-(2-((Dimethylamino)methyl)quinolin-8-yl)-4-(methylsulfonyl)benzenesulfonamide]
> 256 mg/L | > 256 mg/L | 256 mg/L (≈ 642 µM) | 32 mg/L (≈ 80.3 µM) | > 256 mg/L | > 256 mg/L | CC(=O)Nc1ccc(S(=O)(=O)Nc2cccc3ccc(CN(C)C)nc23)cc1 [ZDR072, N-(4-(N-(2-((Dimethylamino)methyl)quinolin-8-yl)sulfamoyl)phenyl)acetamide]
> 256 mg/L | > 256 mg/L | > 256 mg/L | 8 mg/L (≈ 20.8 µM) | > 256 mg/L | > 256 mg/L | CN(C)Cc1ccc2cccc(NS(=O)(=O)c3ccc(C(N)=O)cc3)c2n1 [ZDR073, 4-(N-(2-((Dimethylamino)methyl)quinolin-8-yl)sulfamoyl)benzamide]
256 mg/L (≈ 625 µM) | 256 mg/L (≈ 625 µM) | > 256 mg/L | 0.0625 mg/L (≈ 0.153 µM) | > 256 mg/L | > 256 mg/L | CN(C)Cc1ccc2cccc(NS(=O)(=O)c3cccc(C(F)(F)F)c3)c2n1 [ZDR074, N-(2-((Dimethylamino)methyl)quinolin-8-yl)-3-(trifluoromethyl)benzenesulfonamide]
> 256 mg/L | > 256 mg/L | 256 mg/L (≈ 625 µM) | 0.125 mg/L (≈ 0.305 µM) | > 256 mg/L | > 256 mg/L | CN(C)Cc1ccc2cccc(NS(=O)(=O)c3ccccc3C(F)(F)F)c2n1 [ZDR075, N-(2-((Dimethylamino)methyl)quinolin-8-yl)-2-(trifluoromethyl)benzenesulfonamide]
> 256 mg/L | > 256 mg/L | > 256 mg/L | 1 mg/L (≈ 2.73 µM) | > 256 mg/L | > 256 mg/L | CN(C)Cc1ccc2cccc(NS(=O)(=O)c3cccc(C#N)c3)c2n1 [ZDR076, 3-cyano-N-(2-((dimethylamino)methyl)quinolin-8-yl)benzenesulfonamide]
> 256 mg/L | > 256 mg/L | > 256 mg/L | 1 mg/L (≈ 2.73 µM) | > 256 mg/L | > 256 mg/L | CN(C)Cc1ccc2cccc(NS(=O)(=O)c3ccccc3C#N)c2n1 [ZDR077, N-(2-((Dimethylamino)methyl)quinolin-8-yl)-2-cyanobenzenesulfonamide]
> 256 mg/L | > 256 mg/L | > 256 mg/L | 2 mg/L (≈ 7.16 µM) | > 256 mg/L | > 256 mg/L | CN(C)Cc1ccc2cccc(NS(C)(=O)=O)c2n1 [ZDR078, N-(2-((Dimethylamino)methyl)quinolin-8-yl)methanesulfonamide]
> 256 mg/L | 64 mg/L (≈ 192 µM) | > 256 mg/L | 0.5 mg/L (≈ 1.5 µM) | > 256 mg/L | 256 mg/L (≈ 768 µM) | CN(C)Cc1ccc2cccc(NS(=O)(=O)C(F)(F)F)c2n1 [ZDR079, N-(2-((Dimethylamino)methyl)quinolin-8-yl)-1,1,1-trifluoromethanesulfonamide]
> 256 mg/L | > 256 mg/L | > 256 mg/L | 0.25 mg/L (≈ 0.719 µM) | > 256 mg/L | > 256 mg/L | CN(C)Cc1ccc2cccc(NS(=O)(=O)c3cccs3)c2n1 [ZDR080, N-(2-((Dimethylamino)methyl)quinolin-8-yl)thiophene-2-sulfonamide]
> 256 mg/L | > 256 mg/L | 256 mg/L (≈ 737 µM) | 0.25 mg/L (≈ 0.719 µM) | > 256 mg/L | > 256 mg/L | CN(C)Cc1ccc2cccc(NS(=O)(=O)c3ccsc3)c2n1 [ZDR081, N-(2-((Dimethylamino)methyl)quinolin-8-yl)thiophene-3-sulfonamide]
> 256 mg/L | > 256 mg/L | > 256 mg/L | 0.125 mg/L (≈ 0.347 µM) | > 256 mg/L | > 256 mg/L | Cc1noc(C)c1S(=O)(=O)Nc1cccc2ccc(CN(C)C)nc12 [ZDR082, N-(2-((Dimethylamino)methyl)quinolin-8-yl)-3,5-dimethylisoxazole-4-sulfonamide]
256 mg/L (≈ 681 µM) | > 256 mg/L | 128 mg/L (≈ 341 µM) | 0.0625 mg/L (≈ 0.166 µM) | 256 mg/L (≈ 681 µM) | > 256 mg/L | CN(C)Cc1ccc2cccc(NS(=O)(=O)c3cccc(Cl)c3)c2n1 [ZDR084, 3-Chloro-N-(2-((dimethylamino)methyl)quinolin-8-yl)benzenesulfonamide]
